Data as given in patent US9073975B2, “Cyclic peptides, their preparation and their use as inhibitors of the platelet adhesion” (SANOFI, priority 2010, dated 2015).
Starred links: 1 amine or outer side, 2 acyl side, 3 side chain; linkers in the order of their positions; H or OH if unused. Non-standard residues stand in square brackets, D forms with d. Residues, ends and D or L forms follow the SMILES beside them. NH(CH2)9CO = O=C(CCCCCCCCCN[*:1])[*:2]; Cha = N[C@@H](CC1CCCCC1)C(=O)O; Nle = CCCC[C@H](N)C(=O)O; Nva = CCC[C@H](N)C(=O)O; Dap = NC[C@H](N)C(=O)O; Ac3c = NC1(C(=O)O)CC1; Aib = CC(C)(N)C(=O)O; Ahp = NCCCCCCC(=O)O; Ava = NCCCCC(=O)O; GABA = NCCCC(=O)O

target: T1, recombinant human vWF-A1 domain (Homo sapiens, UniProt P07359); experiment: Static human platelet adhesion to recombinant human vWF-A1 domain; assay type: cell-based; settings: washed calcein AM labeled human platelets, static conditions, 1.5 h adhesion; read-out: Activity (IC50 for inhibition of the binding of platelets to vWF A1 domain)
T1 construct: whole blood drawn from voluntary donors; made in house; host or cells: E. coli (vWF-A1); washed platelets from human donor blood (GPIb, endogenous)
Method: The activity of compounds of the formula I can be shown by procedures known in the art, for example by determining their inhibition of the binding of platelets to vWF A1 domain in an appropriate assay. To this end, assay plates can be coated with vWF-A1 domain. […] Then fluorescence-labeled thrombocytes are added and incubated for 90 minutes. In a complex washing procedure all non-bound thrombocytes are removed and the plates are measured, for example in a laser-based reader Acumen Explorer or a bulk reader like Spectramax. […] To assess the effect of compounds on the interaction of the GPIb complex on platelets with vWF, an assay system was used measuring binding of human platelets to recombinant human vWF-A1 domain under static conditions in the presence and absence of the compounds. […] Platelet rich plasma was carefully removed, transferred to a fresh container and spun down for 15 min at 120 g. Platelet rich plasma was carefully transferred again to fresh containers, PGE1 (0.5 μg/ml, Sigma) was added and the suspension was allowed to rest for 5 min. This was followed by another centrifugation step for 15 min at 360 g. The supernatant was discarded and the cell pellets were carefully resuspended in tyrode buffer (NaCl, 137 mM (Sigma S-3014); KCl, 2.7 mM (Sigma P-9541); NaHCO3,12 mM ([…] 31437); NaH2PO4×2H2O, 0.36 mM (Merck 6345); […] After 5 min of resting the suspension was spun down for 15 min at 300 g. The supernatant was discarded and the pellets were carefully resuspended in TBS buffer (Tris-HCl, 50 mM (Fluka 93371); NaCl, 120 mM (Sigma S-3014); KCl, 2.7 mM (Sigma P-9541); CaCl2, 0.05 mM (Sigma C-3306); MgCl2×6 H2O, 2 mM (Sigma M-2670); […] The platelet count was adjusted to 2×10^5 cells/μl, and the suspensions from individual donors were pooled at this stage. The platelets were allowed to rest for 30 min at room temperature before calcein AM (2.5 μM per 2×10^5 cells/μl (Molecular Probes C-3099)) was added. This was followed by 15 min incubation in the dark. Cells were diluted to 5×10^4 cells/μl and ReoPro (3 μg/ml (Centocor B. V., Leiden, N L)) was added, followed by a 10 min incubation period in the dark before adding the platelets to the assay plates. 96 well plates (Greiner hb, black, clear bottom, F, 655097) were coated with human recombinant vWF-A1 domain (1.5 μg/well, AA 475-706, expressed in E. coli) in Tris buffer (pH 7.4; Tris-HCl, 25 mM; NaCl, 150 mM) and incubated for 1 h at room temperature. After washing the wells 3× with TBS, blocking buffer (TBS with 5% BSA) was added followed by an incubation for 1 h. The wells were washed again 3× with TBS before 200 μl TBS were added to each well, preventing them from drying out. TBS was flicked out and serial dilutions of the test compound were added. The washed and calcein AM labeled thrombocytes were added to the wells (2.5×10^6 cells/well). Following an adhesion period of 1.5 h in the dark the wells were washed 3× with TBS. Measurement of fluorescence per well was performed in a SpectraMax M5 reader (Molecular Devices). From the raw data % inhibition and IC50 values were calculated.

T1 sequence (P07359 17-652): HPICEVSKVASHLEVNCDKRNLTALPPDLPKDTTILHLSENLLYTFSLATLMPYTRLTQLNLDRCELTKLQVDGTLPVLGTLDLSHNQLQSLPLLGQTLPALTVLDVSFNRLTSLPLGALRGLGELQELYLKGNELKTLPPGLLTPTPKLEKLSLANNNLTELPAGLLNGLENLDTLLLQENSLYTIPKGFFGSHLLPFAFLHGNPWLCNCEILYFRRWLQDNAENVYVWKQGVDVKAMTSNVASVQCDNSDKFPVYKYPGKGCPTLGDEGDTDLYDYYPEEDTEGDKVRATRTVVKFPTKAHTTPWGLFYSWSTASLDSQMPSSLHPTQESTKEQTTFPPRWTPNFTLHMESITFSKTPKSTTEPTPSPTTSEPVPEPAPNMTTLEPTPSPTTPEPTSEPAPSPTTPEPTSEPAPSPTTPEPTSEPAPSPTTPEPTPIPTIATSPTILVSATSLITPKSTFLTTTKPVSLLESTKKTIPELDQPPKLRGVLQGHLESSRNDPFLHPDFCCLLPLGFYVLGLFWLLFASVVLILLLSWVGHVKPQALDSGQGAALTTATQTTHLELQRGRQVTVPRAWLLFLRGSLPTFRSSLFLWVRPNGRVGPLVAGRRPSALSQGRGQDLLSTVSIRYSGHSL
T1 sequence (P13224 26-206 partner): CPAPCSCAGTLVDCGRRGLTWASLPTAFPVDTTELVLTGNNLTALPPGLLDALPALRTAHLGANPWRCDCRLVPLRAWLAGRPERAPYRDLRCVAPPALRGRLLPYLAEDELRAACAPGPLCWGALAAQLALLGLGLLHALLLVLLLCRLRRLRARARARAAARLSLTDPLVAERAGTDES
T1 sequence (P14770 17-177 partner): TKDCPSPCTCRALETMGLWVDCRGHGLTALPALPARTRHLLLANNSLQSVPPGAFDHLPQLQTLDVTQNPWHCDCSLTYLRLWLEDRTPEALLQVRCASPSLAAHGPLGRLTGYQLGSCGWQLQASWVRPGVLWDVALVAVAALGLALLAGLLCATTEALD

Compound | IC50 [nM]
CSCC[C@@H]1NC(=O)[C@H](CCCNC(=N)N)NC(=O)[C@H](CCC(=O)O)NC(=O)[C@H]([C@@H](C)O)NC(=O)CCCCCCNC(=O)[C@H](CC(C)C)NC(=O)[C@H](CC(N)=O)NC(=O)[C@H](Cc2c[nH]cn2)NC(=O)[C@H](CC(C)C)NC(=O)[C@H](CCCNC(=N)N)NC1=O [Example 30, Cyclo[Leu-His-Asn-Leu-NH—(CH2)6—CO-Thr-Glu-Arg-Met-Arg]] (cyclo([Ahp]TERMRLHNL)) | 1000 to 10000
CC(C)C[C@@H]1NC(=O)[C@H](C)NC(=O)[C@H](C)NC(=O)[C@H](CCCNC(=N)N)NC(=O)[C@H](CCC(=O)O)NC(=O)[C@H]([C@@H](C)O)NC(=O)CCCCCCNC(=O)[C@H](CC(C)C)NC(=O)[C@H](CC(N)=O)NC(=O)[C@H](Cc2c[nH]cn2)NC1=O [Example 40, Cyclo[Leu-His-Asn-Leu-NH—(CH2)6—CO-Thr-Glu-Arg-Ala-Ala]] (cyclo(AALHNL[Ahp]TER)) | < 1000
CSCC[C@@H]1NC(=O)[C@H](CCCNC(=N)N)NC(=O)[C@H](CCC(=O)O)NC(=O)[C@H]([C@@H](C)O)NC(=O)C(C)(C)NC(=O)CCCNC(=O)[C@H](CC(C)C)NC(=O)[C@H](CC(N)=O)NC(=O)[C@H](Cc2c[nH]cn2)NC(=O)[C@H](CC(C)C)NC(=O)[C@H](C)NC1=O [Example 53, Cyclo[Leu-His-Asn-Leu-NH—(CH2)3—CO-Aib-Thr-Glu-Arg-Met-Ala]] (cyclo(ALHNL[GABA][Aib]TERM)) | 1000 to 10000
CSCC[C@@H]1NC(=O)[C@H](CCCNC(=N)N)NC(=O)[C@H](CCC(=O)O)NC(=O)[C@H]([C@@H](C)O)NC(=O)[C@H](CC(N)=O)NC(=O)CCCNC(=O)[C@H](CC(C)C)NC(=O)[C@H](CC(N)=O)NC(=O)[C@H](Cc2c[nH]cn2)NC(=O)[C@H](CC(C)C)NC(=O)[C@H](C)NC1=O [Example 50, Cyclo[Leu-His-Asn-Leu-NH—(CH2)3—CO-Asn-Thr-Glu-Arg-Met-Ala]] (cyclo(ALHNL[GABA]NTERM)) | 1000 to 10000
CCC[C@@H]1NC(=O)[C@H](C)NC(=O)[C@H](CCSC)NC(=O)[C@H](CCCNC(=N)N)NC(=O)[C@H](CCC(=O)O)NC(=O)[C@H]([C@@H](C)O)NC(=O)CCCCCCNC(=O)[C@H](CC(C)C)NC(=O)[C@H](CC(N)=O)NC(=O)[C@H](Cc2c[nH]cn2)NC1=O [Example 19, Cyclo[Nva-His-Asn-Leu-NH—(CH2)6—CO-Thr-Glu-Arg-Met-Ala]] (cyclo(A[Nva]HNL[Ahp]TERM)) | < 1000
CSCC[C@@H]1NC(=O)[C@H](CCCCN)NC(=O)[C@H](CCC(=O)O)NC(=O)[C@H]([C@@H](C)O)NC(=O)CCCCCCNC(=O)[C@H](CC(C)C)NC(=O)[C@H](CC(N)=O)NC(=O)[C@H](Cc2c[nH]cn2)NC(=O)[C@H](CC(C)C)NC(=O)[C@H](C)NC1=O [Example 7, Cyclo[Leu-His-Asn-Leu-NH—(CH2)6—CO-Thr-Glu-Lys-Met-Ala]] (cyclo(ALHNL[Ahp]TEKM)) | 1000 to 10000
CC(C)C[C@@H]1NC(=O)[C@H](C)NC(=O)[C@H](CCC(N)=O)NC(=O)[C@H](CCCNC(=N)N)NC(=O)[C@H](CCC(=O)O)NC(=O)[C@H]([C@@H](C)O)NC(=O)CCCCCCNC(=O)[C@H](CC(C)C)NC(=O)[C@H](CC(N)=O)NC(=O)[C@H](Cc2c[nH]cn2)NC1=O [Example 41, Cyclo[Leu-His-Asn-Leu-NH—(CH2)6—CO-Thr-Glu-Arg-Gln-Ala]] (cyclo(ALHNL[Ahp]TERQ)) | < 1000
CSCC[C@@H]1NC(=O)[C@H](CCCNC(=N)N)NC(=O)[C@H](CCC(=O)O)NC(=O)[C@H]([C@@H](C)O)NC(=O)CCCNC(=O)[C@H](CN)NC(=O)[C@H](CC(C)C)NC(=O)[C@H](CC(N)=O)NC(=O)[C@H](Cc2c[nH]cn2)NC(=O)[C@H](CC(C)C)NC(=O)[C@H](C)NC1=O [Example 49, Cyclo[Leu-His-Asn-Leu-Dpr-NH—(CH2)3—CO-Thr-Glu-Arg-Met-Ala]] (cyclo(ALHNL[Dap][GABA]TERM)) | 1000 to 10000
CSCC[C@@H]1NC(=O)[C@H](CCCNC(=N)N)NC(=O)[C@H](CCC(=O)O)NC(=O)[C@H](CC(=O)O)NC(=O)CCCCCCNC(=O)[C@H](CC(C)C)NC(=O)[C@H](CC(N)=O)NC(=O)[C@H](Cc2c[nH]cn2)NC(=O)[C@H](CC(C)C)NC(=O)[C@H](C)NC1=O [Example 10, Cyclo[Leu-His-Asn-Leu-NH—(CH2)6—CO-Asp-Glu-Arg-Met-Ala]] (cyclo(ALHNL[Ahp]DERM)) | 1000 to 10000
CSCC[C@@H]1NC(=O)[C@H](CCCNC(=N)N)NC(=O)[C@H](CCC(=O)O)NC(=O)[C@H]([C@@H](C)O)NC(=O)CCCCCCCCCNC(=O)[C@H](CC(C)C)NC(=O)[C@H](CC(N)=O)NC(=O)[C@H](Cc2c[nH]cn2)NC(=O)[C@H](CC(C)C)NC(=O)[C@H](C)NC1=O [Example 47, Cyclo[Leu-His-Asn-Leu-NH—(CH2)9—CO-Thr-Glu-Arg-Met-Ala]] (cyclo(ALHNL[NH(CH2)9CO]TERM)) | 1000 to 10000
CSCC[C@@H]1NC(=O)[C@H](CN)NC(=O)[C@H](CCC(=O)O)NC(=O)[C@H]([C@@H](C)O)NC(=O)CCCCCCNC(=O)[C@H](CC(C)C)NC(=O)[C@H](CC(N)=O)NC(=O)[C@H](Cc2c[nH]cn2)NC(=O)[C@H](CC(C)C)NC(=O)[C@H](C)NC1=O [Example 29, Cyclo[Leu-His-Asn-Leu-NH—(CH2)6—CO-Thr-Glu-Dpr-Met-Ala]] (cyclo(ALHNL[Ahp]TE[Dap]M)) | 1000 to 10000
CCCC[C@@H]1NC(=O)[C@H](CCCNC(=N)N)NC(=O)[C@H](CCC(=O)O)NC(=O)[C@H]([C@@H](C)O)NC(=O)CCCCCCNC(=O)[C@H](CC(C)C)NC(=O)[C@H](CC(N)=O)NC(=O)[C@H](Cc2c[nH]cn2)NC(=O)[C@H](CC(C)C)NC(=O)[C@H](C)NC1=O [Example 43, Cyclo[Leu-His-Asn-Leu-NH—(CH2)6—CO-Thr-Glu-Arg-Nle-Ala]] (cyclo(ALHNL[Ahp]TER[Nle])) | < 1000

The remaining lines, values ahead:

IC50 [nM] | Compound
< 1000 | CSCC[C@@H]1NC(=O)[C@H](CCCNC(=N)N)NC(=O)[C@H](CCC(=O)O)NC(=O)[C@H]([C@@H](C)O)NC(=O)CCCCCCNC(=O)[C@H](CC(C)C)NC(=O)[C@H](CC(N)=O)NC(=O)[C@H](Cc2c[nH]cn2)NC(=O)[C@H](CC(C)C)NC(=O)[C@H](CN)NC1=O [Example 32, Cyclo[Leu-His-Asn-Leu-NH—(CH2)6—CO-Thr-Glu-Arg-Met-Dpr]] (cyclo([Ahp]TERM[Dap]LHNL))
< 1000 | CSCC[C@@H]1NC(=O)[C@H](CCCNC(=N)N)NC(=O)[C@H](CCC(=O)O)NC(=O)[C@H]([C@@H](C)O)NC(=O)CCCCCCNC(=O)[C@H](CC(C)C)NC(=O)[C@H](CC(N)=O)NC(=O)[C@H](Cc2c[nH]cn2)NC(=O)[C@H](CC2CCCCC2)NC(=O)[C@H](C)NC1=O [Example 16, Cyclo[Cha-His-Asn-Leu-NH—(CH2)6—CO-Thr-Glu-Arg-Met-Ala]] (cyclo([Cha]HNL[Ahp]TERMA))
1000 to 10000 | CSCC[C@@H]1NC(=O)[C@H](CCCNC(=N)N)NC(=O)[C@H](CCC(=O)O)NC(=O)[C@H]([C@@H](C)O)NC(=O)C2(CC2)NC(=O)CCCNC(=O)[C@H](CC(C)C)NC(=O)[C@H](CC(N)=O)NC(=O)[C@H](Cc2c[nH]cn2)NC(=O)[C@H](CC(C)C)NC(=O)[C@H](C)NC1=O [Example 54, Cyclo[Leu-His-Asn-Leu-NH—(CH2)3—CO-Ac3-Thr-Glu-Arg-Met-Ala]] (cyclo(ALHNL[GABA][Ac3c]TERM))
1000 to 10000 | CCCC[C@@H]1NC(=O)[C@H](C)NC(=O)[C@H](CCSC)NC(=O)[C@H](CCCNC(=N)N)NC(=O)[C@H](CCC(=O)O)NC(=O)[C@H]([C@@H](C)O)NC(=O)CCCCCCNC(=O)[C@H](CC(C)C)NC(=O)[C@H](CC(N)=O)NC(=O)[C@H](Cc2c[nH]cn2)NC1=O [Example 13, Cyclo[Nle-His-Asn-Leu-NH—(CH2)6—CO-Thr-Glu-Arg-Met-Ala]] (cyclo(A[Nle]HNL[Ahp]TERM))
1000 to 10000 | CSCC[C@@H]1NC(=O)[C@H](CCCNC(=N)N)NC(=O)[C@H](CCC(=O)O)NC(=O)[C@H]([C@@H](C)O)NC(=O)CCCCNC(=O)CNC(=O)[C@H](CC(C)C)NC(=O)[C@H](CC(N)=O)NC(=O)[C@H](Cc2c[nH]cn2)NC(=O)[C@H](CC(C)C)NC(=O)[C@H](C)NC1=O [Example 46, Cyclo[Leu-His-Asn-Leu-Gly-NH—(CH2)4—CO-Thr-Glu-Arg-Met-Ala]] (cyclo(ALHNLG[Ava]TERM))
